According to patent publication US11607384B2, “Lipid emulsified drug delivery systems for chemoprevention and treatment” (WESTERN UNIVERSITY OF HEALTH SCIENCES, priority 2017, dated 2023):

How the values were obtained:
[1] = system: MIA-PaCa-2 pancreatic cancer cells; experiment: Colorimetric MTS cytotoxicity assay in MIA-PaCa-2 cells; type: cell-based, Human; conditions: for IC50: MIA-PaCa-2, 72 h
Experimental: (§1) Human PC cells MIA PaCa-2 and Panc-1 were obtained from American type culture collection (ATCC) (Rockville, Md.). Cells were maintained in Dulbecco's modified Eagle's medium (DMEM) containing 10% fetal bovine serum (FBS) obtained from ATCC. Cells were cultured at 37° C. in a humidified atmosphere of 5% CO2 and 95% air.
(§2) The cell viability assay was performed according to manufacturer's protocol with the Promega CellTitre 96 Aqueous MTS reagent (Madison, Wis., USA). Briefly, 7.5×10^3 cells were seeded in 96-well plates and incubated overnight. […] At the end of the incubation period, the growth medium was removed followed by addition of 100 μl media consisting of 20% MTS and 1% of phenazine methosulfate (PMS) and the mixture was incubated for 2 h at 37° C. MTS is bio-reduced by the cells into formazan which could be measured using a microplate reader at 490 nm. Thus, the quantity of formazan product measured by absorbance is directly proportional to the number of living cells in culture. IC50 values were determined using Graph Pad Prism software (San Diego, Calif., USA). All analysis was performed in triplicate and replicated.
A study to determine IC50 (inhibitory concentration to kill 50% of cancer cells) in in vitro cell line cultures of pancreatic cancer cell line was performed.
The cell viability assay was performed according to the manufacturer's protocol with the Promega CellTitre 96 Aqueous MTS reagent (Madison, Wis., USA). Briefly, 7.5×10^3 cells were seeded in 96-well plates and were incubated overnight. The cells were treated with different concentrations of treatment groups followed by incubation for a period of 72 hours. At the end of the incubation period, the growth medium was removed followed by addition of 100 μl media consisting of 20% MTS and 1% of phenazine methosulfate (PMS) and the mixture was incubated for 2 h at 37° C. MTS is bio-reduced by the cells into formazan which could be measured using a microplate reader at 490 nm. Thus, the quantity of formazan measured by the absorbance is directly proportional to the number of living cells in culture. […] All analysis was performed in triplicate.
(§3) The cytotoxicity of the various treatment groups were evaluated using a colorimetric MTS assay. The cell viability assay was performed according to the manufacturer's protocol with the Promega CellTitre 96 Aqueous MTS reagent (Madison, Wis., USA). Briefly, 7.5×10^3 cells were seeded in 96-well plates and were incubated overnight. The cells were treated with different concentrations of treatment groups followed by incubation for a period of 72 hours. At the end of the incubation period, the growth medium was removed followed by addition of 100 μl media consisting of 20% MTS and 1% of phenazine methosulfate (PMS) and the mixture was incubated for 2 h at 37° C. MTS is bio-reduced by the cells into formazan which could be measured using a microplate reader at 490 nm. Thus, the quantity of formazan measured by the absorbance is directly proportional to the number of living cells in culture.
Cytotoxicity was evaluated in Mia PaCa 2 pancreatic cancer cells using the colorimetric MTS assay, as described above.
A study to determine IC50 in in vitro cell line cultures of pancreatic cancer cell lines was performed. […] Cytotoxicity was evaluated using the colorometric MTS assay. The cell viability assay was performed according to the manufacturer's protocol with the Promega Cell Titre 96 Aqueous MTS reagent (Madison, Wis., USA). Briefly, 7.5×10^6 cells were seeded in 96-well plates and were incubated overnight. The cells were treated with different concentrations of treatment groups followed by incubation for a period of 72 h.

[2] = system: Panc-1 pancreatic cancer cells; experiment: Colorimetric MTS cytotoxicity assay in Panc-1 cells; type: cell-based, Human; conditions: Panc-1, 72 h
Experimental: as §1, §2, §3
The cell viability assay was performed according to the manufacturer's protocol with the Promega Cell Titre 96 Aqueous MTS reagent (Madison, Wis., USA). Briefly, 7.5×10^3 cells were seeded in 96-well plates and were incubated overnight. The cells were treated with different concentrations of treatment groups followed by incubation for a period of 72 h. At the end of the incubation period, the growth medium was removed followed by addition of 100 μl media consisting of 20% MTS and 1% of phenazine methosulfate (PMS) and the mixture was incubated for 2 h at 37° C. MTS is bio-reduced by the cells into formazan which could be measured using a microplate reader at 490 nm. Thus, the quantity of formazan measured by the absorbance is directly proportional to the number of living cells in culture.
A study to determine IC50 in in vitro cell line cultures of pancreatic cancer cell lines was performed. […] Cytotoxicity was evaluated using the colorometric MTS assay. […] MTS is bio-reduced by the cells into formazan which could be measured using a microplate reader at 490 nm. Thus, the quantity of formazan measured by the absorbance is directly proportional to the number of living cells in culture.
A study to determine IC50 in in vitro cell line cultures of pancreatic cancer cell lines was performed. […] Cytotoxicity was evaluated using the colorometric MTS assay.

In the case of Nc1ccn([C@@H]2O[C@H](CO)[C@@H](O)C2(F)F)c(=O)n1 [Gemcitabine], the IC50 ([1]; Homo sapiens, Table 14, varied Gemcitabine, fixed LOR (free or system 2) 125 μM, Sulforaphane 5 μM) is reported as 692 µM and the IC50 ([2]; Homo sapiens, Table 16, varied Gemcitabine, fixed LOR (free or system 2) 125 μM, Sulforaphane 5 μM) is reported as 539 µM.
For CCOC(=O)N1CCC(=C2c3ccc(Cl)cc3CCc3cccnc32)CC1 [LOR (free), Loratadine], the IC50 ([1]; Homo sapiens, Table 4, MTS) was 326 µM and the IC50 ([2]; Homo sapiens, Table 9, MTS) was 357 µM.
Compound CC(=O)O[C@H]1C(=O)[C@@]2(C)[C@H]([C@H](OC(=O)c3ccccc3)[C@]3(O)C[C@H](OC(=O)[C@H](O)[C@@H](NC(=O)c4ccccc4)c4ccccc4)C(C)=C1C3(C)C)[C@]1(OC(C)=O)CO[C@@H]1C[C@@H]2O [Paclitaxel] has an IC50 ([1]; Homo sapiens, Table 18, varied Paclitaxel, fixed LOR (free or system 2) 125 μM, Sulforaphane 5 μM) of 1.96 µM and an IC50 ([2]; Homo sapiens, Table 20, varied Paclitaxel, fixed LOR (free or system 2) 125 μM, Sulforaphane 5 μM) of 2.33 µM.
With C[S+]([O-])CCCCN=C=S (centres unmarked) [Sulforaphane (free), Sulforaphane] the cell inhibition ([1]; Mia PaCa 2, at the concentration of 5 μM) was “did not show any significant cell inhibition”, the IC50 ([1]; Table 5, MTS, combinations with fixed free Sulforaphane 5 μM) was 92.2 µM and the IC50 ([1]; Table 6, MTS, combinations with fixed free Sulforaphane 5 μM) was 92.2 µM. For the same compound, the IC50 ([2]; Table 10, MTS, LOR alone or in combination with free Sulforaphane) was 99.6 µM and the IC50 ([2]; Table 11, MTS, DES alone or in combination with free Sulforaphane) was 99.6 µM.
